{"source": "patent US12016865B2", "about": "“Methods and pharmaceutical compositions for treating candida auris in blood” (Cormedix Inc., priority 2017, dated 2024)", "key": {"[1]": {"test_system": "C. auris blood-borne pathogens", "experiment": "treating C. auris blood-borne pathogens (FIG. 2)", "parameters": "species or system Candida auris", "details": "blood-borne infection of C. auris", "excerpt": "FIG. 2 is a table showing the effectiveness of treating a blood-borne infection of C. auris using taurolidine and/or taurolidine derivatives."}, "[2]": {"details": "cited from earlier work"}, "[3]": {"details": "saturated solution in deionized water; cited from earlier work"}, "[4]": {"details": "water buffered at pH 7.2; cited from earlier work"}, "[5]": {"details": "stored at ambient conditions; cited from earlier work"}, "Microbes": {"test_system": "Microbes", "details": "microbes killed and toxins inactivated; cited from earlier work"}, "[6]": {"details": "cited from earlier work", "remark": "listed apart in the source"}}}
{"smiles": "O=S1(=O)CCN(CN2CCS(=O)(=O)NC2)CN1", "note": "[taurolidine, 4,4′-methylene-bis(tetrahydro-1,2,4-thiadiazine)-1,1,1′,1′,-tetraoxide]", "values": [{"measurement": "effect on C. auris blood-borne pathogens", "setting": "[1]", "value": "neutralize C. auris blood-borne pathogens"}, {"measurement": "solubility in CHCl3", "setting": "[2]; CHCl3", "value": "insoluble"}, {"measurement": "solubility in Dilute HCl", "setting": "[2]; Dilute HCl", "value": "soluble"}, {"measurement": "solubility in Dilute NaOH", "setting": "[2]; Dilute NaOH", "value": "soluble"}, {"measurement": "solubility in EtOH", "setting": "[2]; EtOH", "value": "sparingly soluble"}, {"measurement": "solubility in Water", "setting": "[2]; Water, at 20 degrees C.", "value": 1, "unit": "%"}, {"measurement": "pH of saturated solution", "setting": "[3]", "value": 7.4}, {"measurement": "apparent partition coefficient between octanol and water", "setting": "[4]", "value": "approximately 0.13"}, {"measurement": "stability in the solid state", "setting": "[5]", "value": "acceptable stability"}, {"measurement": "destruction time in vitro", "setting": "Microbes", "value": "approximately 30 minutes"}, {"measurement": "cumulative dose shown safe and well tolerated", "setting": "[6]; cumulative doses", "value": "> 300", "unit": "g"}, {"measurement": "systemic dose shown safe and well tolerated", "setting": "[6]; systemic doses", "value": "exceeding 40 g/day"}]}
